Assay results published in patent US6414024B1, “GABA and L-glutamic acid analogs for antiseizure treatment” (Northwestern University, priority 1990, dated 2002).
Like-named read-outs stand apart in the source and are kept apart here.

Legend:
[1] = tested on: tonic hindlimb extensor seizures in mice; test: Threshold maximal (low-intensity) electroshock, tonic extensor seizures; type: in vivo; settings: for ED50: IV, mouse, 17 mA
Procedure: Threshold maximum electroshock is an animal model test for generalized seizures that is similar to that of Piredda S G, et al, Pharmacol. and Exptl. Therap. […] The methods for this test are described as follows.
Male CF-1 mice (22-30 g) were allowed free access to food and water prior to testing. For screening, groups of five mice were given a compound intravenously at doses of 30, 100, and 300 mg/kg and tested at 0.5, 2.0, and 4.0 hours after dosing. Drugs were either dissolved in 0.9% saline or suspended in 0.2% methylcellulose. Animals were shocked with corneal electrodes (see below) and observed for tonic hindlimb extensor seizures. Absence of hindlimb extension was taken as an anticonvulsant effect.
The electroshock apparatus delivered a 60 Hz sine wave with a current amplitude of 14 mA (peak-to-peak) for 0.2 seconds.
(§1) For anticonvulsant testing, male CF-1 strain mice (20-25 g) and male Sprague-Dawley rats (75-115 g) were obtained from Charles River Laboratories and were maintained with free access to food and water before testing. […] Briefly, mice were given test substance and were tested for prevention of seizures by application of electrical current to the corneas by 2 metal electrodes covered with gauze and saturated with 0.9% sodium chloride. Electroshock stimulation was delivered by a constant-current device that produced 60 Hz sinusoidal electrical current for 0.2 seconds. For rats, maximal electroshock stimulation consisted of 120 mA of current. […] Any mouse that fell from the wire mesh during a 60 second test period was rated as ataxic.

[2] = Ataxia in mice (inverted screen procedure); settings: male, CF-1, in vivo, mouse
Procedure: as §1

Gabapentin Receptor = biological target: T1, Gabapentin Receptor (Rattus norvegicus, UniProt P54290); test: Gabapentin receptor binding, displacement of [3H]-gabapentin
T1 construct: partially purified synaptic plasma membranes were prepared from rat neocortex; from tissue; host or cells: rat neocortex synaptic plasma membranes
Procedure: For binding studies, partially purified synaptic plasma membranes were prepared from rat neocortex using sucrose density gradients. The cerebral cortex of 10 rats was dissected from the rest of the brain and homogenized in 10 volumes (weight/volume) of ice-cold 0.32 M sucrose in 5 mM tris-acetate (pH 7.4) using a glass homogenizer fitted with a teflon pestle (10-15 strokes at 200 rpm). The homogenate was centrifuged at 100 g for 10 minutes and the supernatant collected and kept on ice. The pellet (PI) was rehomogenized in 20 mL of tris-sucrose and the homogenate recentrifuged. The combined supernatants were centrifuged at 21,500 g for 20 minutes. The pellet (P2) was resuspended in 1.2 M tris-sucrose and 15 mL of this mixture was added to ultracentrifuge tubes. On to this, 10 mL of 0.9 M sucrose was layered followed by a final layer of 5 mM tris-acetate, pH 8.0. Tubes were centrifuged at 100,000 g for 90 minutes. The synaptic plasma membranes located at the 0.9/1.2 M sucrose interface. were collected, resuspended in 50 mL of 5 mM tris-acetate, pH 7.4, and centrifuged at 48,000 g. The final pellet was resuspended in 50 mL of tris-acetate, pH 7.4, aliquoted, and then frozen until use.
The assay tissue (0.1 to 0.3 mg protein) was incubated with […] [^3H]-gabapentin in 10 mM HEPES buffer (pH 7.4 at 20° C., sodium free) in the presence of varying concentrations of test compound for 30 minutes at room temperature, before filtering onto GFB filters under vacuum. Filters were washed 3 times with 5 mL of ice cold 100 mM NaCl solution and dpm bound to filters was determined using liquid scintillation counting. Nonspecific binding was defined by that observed in the presence of […] gabapentin.

[3] = tested on: maximal electroshock seizures in mice; test: Maximal electroshock in mice; type: in vivo; settings: mouse
Excerpt: For anticonvulsant testing, male CF-1 strain mice (20-25 g) and male Sprague-Dawley rats (75-115 g) were obtained from Charles River Laboratories and were maintained with free access to food and water before testing. Maximal electroshock was delivered with corneal electrodes by conventional methods (Krall, supra, 1975) except that low-intensity electroshock with mice consisted of 17 mA of current rather than the conventional 50 mA (zero to peak). Briefly, mice were given test substance and were tested for prevention of seizures by application of electrical current to the corneas by 2 metal electrodes covered with gauze and saturated with 0.9% sodium chloride. Electroshock stimulation was delivered by a constant-current device that produced 60 Hz sinusoidal electrical current for 0.2 seconds. For rats, maximal electroshock stimulation consisted of 120 mA of current. Ataxia in mice was assessed by the inverted screen procedure in which mice were individually placed on a 4.0-inch square of wire mesh that was subsequently inverted (Coughenour, supra, 1978). Any mouse that fell from the wire mesh during a 60 second test period was rated as ataxic.
All drugs were freely soluble in aqueous media. For in vivo studies, drug solutions were made in 0.9% sodium chloride and given in a volume of 1 mL/100 g body weight. Intravenous administration was given by bolus injection into the retro-orbital sinus in mice. Oral administrations were by intragastric gavage.

[4] = IV, read-out: IV Mouse Ataxia (ED50)
[5] = IV, read-out: IV Mouse Maximal Electroshock (ED50)
[6] = PO, read-out: PO Mouse Maximal Electroshock (ED50)

T1 sequence (P54290 25-1091): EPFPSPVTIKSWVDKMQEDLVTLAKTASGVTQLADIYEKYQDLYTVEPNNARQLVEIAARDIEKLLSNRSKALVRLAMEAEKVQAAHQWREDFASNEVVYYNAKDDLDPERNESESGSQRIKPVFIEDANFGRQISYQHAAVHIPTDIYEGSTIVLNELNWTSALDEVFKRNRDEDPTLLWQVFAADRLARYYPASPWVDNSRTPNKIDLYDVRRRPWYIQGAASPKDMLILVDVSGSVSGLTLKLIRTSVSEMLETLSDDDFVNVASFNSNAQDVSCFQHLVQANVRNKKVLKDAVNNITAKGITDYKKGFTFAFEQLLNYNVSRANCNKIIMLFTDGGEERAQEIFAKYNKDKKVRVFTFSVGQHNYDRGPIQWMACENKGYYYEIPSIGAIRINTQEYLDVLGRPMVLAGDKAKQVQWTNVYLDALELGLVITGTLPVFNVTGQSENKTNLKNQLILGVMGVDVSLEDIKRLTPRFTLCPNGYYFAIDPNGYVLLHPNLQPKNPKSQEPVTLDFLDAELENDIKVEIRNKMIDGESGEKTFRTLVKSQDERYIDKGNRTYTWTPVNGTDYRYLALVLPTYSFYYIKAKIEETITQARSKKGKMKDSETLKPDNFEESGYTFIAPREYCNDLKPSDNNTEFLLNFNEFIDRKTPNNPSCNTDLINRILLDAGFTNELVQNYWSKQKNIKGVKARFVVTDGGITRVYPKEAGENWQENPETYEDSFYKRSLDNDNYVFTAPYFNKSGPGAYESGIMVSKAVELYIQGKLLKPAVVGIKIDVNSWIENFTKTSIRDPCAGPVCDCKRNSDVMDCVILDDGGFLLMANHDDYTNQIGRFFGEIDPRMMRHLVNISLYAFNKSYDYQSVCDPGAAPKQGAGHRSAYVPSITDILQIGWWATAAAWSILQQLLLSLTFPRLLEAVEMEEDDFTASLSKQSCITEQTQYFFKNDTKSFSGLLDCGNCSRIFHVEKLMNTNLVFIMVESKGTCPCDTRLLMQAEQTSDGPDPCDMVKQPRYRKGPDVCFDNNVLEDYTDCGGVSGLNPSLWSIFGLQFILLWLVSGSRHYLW

Compound	ED50 [1]	time of maximum protection, threshold maximal electroshock ([1]; mice, 10 mg/kg intravenously, tested 1 hour to 8 hours)	# Protected, threshold maximal electroshock ([1]; mice, 10 mg/kg intravenously, time of testing 1 hr.)	# Protected, threshold maximal electroshock ([1]; mice, 10 mg/kg intravenously, time of testing 2 hr.)	# Protected, threshold maximal electroshock ([1]; mice, 10 mg/kg intravenously, time of testing 4 hr.)	# Protected, threshold maximal electroshock ([1]; mice, 10 mg/kg intravenously, time of testing 8 hr.)	calculated EDSO, threshold maximal electroshock dose response ([1]; mice, intravenously, two hour testing time)	ED50 [2, 4]	IC50 (Gabapentin Receptor)	ED50 [3, 5]	ED50 [3, 6]	ED50 ([2]; (IP), read-out: Mouse Ataxia (ED50))
CC(C)CC(CN)CC(=O)O (racemic) [(R,S)-i-C4H9, H, 4-amino-3-(2-methylpropyl)butanoic acid]	4.8 mg/kg	2 h	2/10	8/10	4/10	2/10	2.07 mg/kg	> 100 mg/kg	100 nM	10 mg/kg	47 mg/kg	
CC(C)C[C@@H](CN)CC(=O)O [(R)-IBG, (R)(−)-4-amino-3-(2-methylpropyl)butanoic acid]	> 100 mg/kg							> 100 mg/kg	860 nM	> 100 mg/kg		
CC(C)C[C@H](CN)CC(=O)O [(S)-IBG, (S)-(+)-4-Amino-3-(2-methylpropyl)butanoic Acid]	4 mg/kg							> 300 mg/kg	44 nM	18 mg/kg	12 mg/kg	
NCC1(CC(=O)O)CCCCC1 [Gabapentin, gabapentin, reference compound]	4.3 mg/kg									75 mg/kg	200 mg/kg	> 100 mg/kg
